According to the OligoGym collection:
After the bases stand the sugars from the 5' end (letter, count) and the backbone: PS all phosphorothioate, else s phosphorothioate and o phosphodiester by linkage. Methylation of C is not given here. e = 2'-O-(2-methoxyethyl) (MOE); k = constrained ethyl (cEt); d = 2'-deoxy (DNA); m = 2'-O-methyl

Biological target: HSD17B13
Conditions: ASO, HepaRG

Sequence | target mRNA inhibition (1 µM) [%] | further results
CTTTCATAGGGAGACC (sugars k3 d10 k3, PS) | 73 | target mRNA inhibition (0.02 µM): 20%; target mRNA inhibition (0.078 µM): 2%; target mRNA inhibition (0.313 µM): 54%; target mRNA inhibition (1.25 µM): 75%; target mRNA inhibition (5 µM): 86%
CTTTGAGACTCTTGTT (sugars k3 d10 k3, PS) | 61 | 
CTTTGCAGCATTGATT (sugars k3 d1 m1 d8 k3, PS) | 19 | 
CTTTGCAGCATTGATT (sugars k3 d10 k3, PS) | 47 | 
GAAACCTTCATGCTAG (sugars k3 d10 k3, PS) | 31 | 
GAAATATAGAGGGTCC (sugars k3 d10 k3, PS) | 22 | 
GAAATTCACCTTGACT (sugars k3 d10 k3, PS) | 41 | 
GAAATTGATACACCAA (sugars k3 d9 k3 e1, PS) | 64 | 
GAACAATATGGGATGA (sugars k3 d1 m1 d8 k3, PS) | 50 | 
GAACAATATGGGATGA (sugars k3 d9 k3 e1, PS) | 52 | 
GAACACTTTCACTGGG (sugars k3 d10 k3, PS) | 0 | 
GAAGAAGGACTTTCAT (sugars k3 d10 k3, PS) | 40 | 
GAAGCCACTGTGACGA (sugars k3 d10 k3, PS) | 58 | 
GAAGTGCTTTTGTGAT (sugars k3 d10 k3, PS) | 34 | 
GAAGTGTAATGCTCCC (sugars k3 d10 k3, PS) | 71 | 
GAAGTTTTTAAGAGGC (sugars k3 d10 k3, PS) | 64 | 
GAATAGCAAGCCAACA (sugars k3 d1 m1 d8 k3, PS) | 23 | 
GAATCAAATAGATCCT (sugars k3 d10 k3, PS) | 46 | 
GAATCATTCAGTAGCT (sugars k3 d10 k3, PS) | 65 | 
GAATTCACTATCTCCC (sugars k3 d10 k3, PS) | 38 | 
GAATTTTTGAGGTTGG (sugars k3 d10 k3, PS) | 77 | target mRNA inhibition (0.02 µM): 17%; target mRNA inhibition (0.078 µM): 26%; target mRNA inhibition (0.313 µM): 62%; target mRNA inhibition (1.25 µM): 92%; target mRNA inhibition (5 µM): 91%
GACAACAGAGTTCTGT (sugars k3 d10 k3, PS) | 9 | 
GACAAGAGTTCTTGCA (sugars k3 d10 k3, PS) | 22 | 
GACAATACAGGATAGA (sugars k3 d10 k3, PS) | 43 | 

Sequence | target mRNA inhibition (1 µM) [%] | further results
GACAATGACATAGACG (sugars k3 d10 k3, PS) | 0 | 
GACAATGGTTGCCACT (sugars k3 d10 k3, PS) | 63 | 
GACAATGTGCAGCTCT (sugars k3 d10 k3, PS) | 67 | 
GACAGAGCAATTTACT (sugars k3 d10 k3, PS) | 55 | 
GACAGTAAAATTATGC (sugars k3 d10 k3, PS) | 57 | 
GACATAACTTCATAGT (sugars k3 d10 k3, PS) | 39 | 
GACATGAAGATTAGTT (sugars k3 d10 k3, PS) | 3 | 
GACCAAGGATATATGA (sugars k3 d10 k3, PS) | 48 | 
GACCAAGTAGCTTACA (sugars k3 d10 k3, PS) | 28 | 
GACCAGGGAATTTATC (sugars k3 d10 k3, PS) | 41 | 
GACCTCTGTGAAAGCC (sugars k3 d10 k3, PS) | 46 | 
GACTACGGACTGGCAA (sugars k3 d10 k3, PS) | 60 | 
GACTGCTGCTAGTGCC (sugars k3 d1 m1 d8 k3, PS) | 60 | 
GACTGCTGCTAGTGCC (sugars k3 d10 k3, PS) | 67 | 
GACTGCTGCTAGTGCC (sugars kkdddddddddkekek, PS) | 35 | 
GACTTCAGAGTTATAC (sugars k3 d10 k3, PS) | 16 | 
GACTTGCCTCATTTAG (sugars k3 d10 k3, PS) | 69 | 
GACTTTCATAGGGAGA (sugars k3 d10 k3, PS) | 72 | 
GAGACAAGAGTTCTTG (sugars k3 d10 k3, PS) | 19 | 
GAGAGAACTTATACAA (sugars k3 d10 k3, PS) | 37 | 
GAGAGCGATAGATCTC (sugars k3 d10 k3, PS) | 1 | 
GAGAGTAATCAGTTTT (sugars k3 d10 k3, PS) | 27 | 
GAGATTTGAAGGTTAG (sugars k3 d10 k3, PS) | 82 | target mRNA inhibition (0.02 µM): 0%; target mRNA inhibition (0.078 µM): 26%; target mRNA inhibition (0.313 µM): 54%; target mRNA inhibition (1.25 µM): 77%; target mRNA inhibition (5 µM): 92%
GAGAUAAAGCTGCCTG (sugars k3 d1 m1 d8 k3, PS) | 39 | 

Sequence | target mRNA inhibition (1 µM) [%] | further results
GAGCCTAAAATTGTCT (sugars k3 d10 k3, PS) | 49 | 
GAGGAATGGCTAGGAT (sugars k3 d10 k3, PS) | 47 | 
GAGGAGTTAGGGAGCC (sugars k3 d10 k3, PS) | 36 | 
GAGGCTAGGGAAATCT (sugars k3 d10 k3, PS) | 56 | 
GAGGTAGCTTTTGTCC (sugars k3 d10 k3, PS) | 59 | 
GAGTATAAATGGCAAT (sugars k3 d10 k3, PS) | 53 | 
GAGTATGACAACTGGA (sugars k3 d10 k3, PS) | 23 | 
GAGTCGGATTATTTTT (sugars k3 d10 k3, PS) | 44 | 
GAGTCGGTCACCTTTC (sugars kkdddddddddkekek, PS) | 62 | 
GAGTGCATCTTAAGAT (sugars k3 d10 k3, PS) | 43 | 
GAGTTGCACCGTTTTG (sugars k3 d10 k3, PS) | 48 | 
GATAAAATAGGGTGCA (sugars k3 d10 k3, PS) | 52 | 
GATAAGAAGAGAGCTC (sugars k3 d10 k3, PS) | 36 | 
GATAAGTAGATGGTAA (sugars k3 d10 k3, PS) | 59 | 
GATACAAATTTATTGG (sugars k3 d10 k3, PS) | 33 | 
GATACATACCACTCTT (sugars k3 d10 k3, PS) | 52 | 
GATACCAGTTTTTCCC (sugars k3 d10 k3, PS) | 75 | 
GATACCTGAAAAGCCC (sugars k3 d10 k3, PS) | 49 | 
GATAGATCTCTTCTCT (sugars k3 d10 k3, PS) | 0 | 
GATCATTCCTGCTAGT (sugars k3 d10 k3, PS) | 35 | 
GATCTTAAGGATCATT (sugars k3 d10 k3, PS) | 0 | 
GATGAGGTAAGGAATC (sugars k3 d10 k3, PS) | 0 | 
GATGATGTTCATGGCT (sugars k3 d10 k3, PS) | 86 | target mRNA inhibition (0.02 µM): 3%; target mRNA inhibition (0.078 µM): 17%; target mRNA inhibition (0.313 µM): 70%; target mRNA inhibition (1.25 µM): 85%
GATGCTCCATAATAAT (sugars kkdddddddddkekek, PS) | 17 | 
